Data set [1] relates to luciferase-expressing MV4-11 cells. Nature of the data set: MV4-11 leukemia in NSG mice, bioluminescence imaging. It counts as in vivo, mouse. The settings on record: for inhibition of leukemia growth (BLI): 23 days, NSG mice. How it is done: Assay protocol. For in vivo studies, 7-week-old female NSG mice (Jackson Laboratories) were injected with 2×10^6 luciferase-expressing MV4-11 cells in the tail vein. Following engraftment, BLI was performed on the inoculated mice 5 days after cell inoculation. After BLI, the mice were sorted into two matching cohorts of 10 mice and one cohort of 5 mice. BLI detection was done with IVIS Lumina II Series Hardware for In-Vivo Imaging with optional XFOV lens and Living Image software. The IVIS setting for sorting mice into cohorts was set for high sensitivity: Bin 8, F1.2, 180 sec. Subsequent exposures (week 1-5) were set for increased resolution: Bin 4, F1.2, 120 sec.
Treatment was initiated on day 6 following cell-inoculation and continued for 23 days. Ten mice received Vehicle only (5% carboxylmethyl cellulose) by gavage (200 μl). […] This diet matches the diet used for normal mouse feeding, with the exception of added dye and 15u. The control MV4-11 xenografted mice (Vehicle) developed a vigorous tumor population as detected by BLI (FIG. 10B-10C). […] Survival of the mice post treatment was monitored.

Data set [2] deals with PSA expression in CRPC cell line C4-2. Briefly: PSA expression in C4-2 cell culture supernatant. Format: cell-based. The settings on record: C4-2, 96 h, read-out: IC50, suppression of PSA expression. The text has this:
CDK8/19 inhibition decreases the expression of certain androgen-receptor (AR) inducible genes including PSA, the most common marker of prostate cancer, and the growth of castration-refractory prostate cancers (CRPC).

For data set [3], the system named is MDA-MB-468 triple-negative breast cancer (TNBC) cells. Briefly: MDA-MB-468 long-term treatment in vitro. It counts as cell-based, Human.
The next data set has as its system MYC-CAP-CR cells. Briefly: Short-term cell proliferation assay, MYC-CAP-CR. Particulars: androgen-containing media. It counts as cell-based, murine.
A short description of data set [4]: MTD study, oral gavage b.i.d. 14 days, CD-1 mice. Particulars: for detrimental effects: 14 days. It counts as in vivo, mouse. On the procedure:
The highest dose (120 mg/kg b.i.d.) caused about 10% body weight loss in female mice after 7-10 days of treatment but no further deterioration was observed through the rest of the treatment period (FIG. 12A).

With `CN(C)C(=O)c1ccc(N2CCCN(c3ccnc4sc(C(N)=O)c(N)c34)CC2)cc1` [15u, 3-amino-4-(4-(4-(dimethylcarbamoyl)phenyl)-1,4-diazepan-1-yl)thieno[2,3-b]pyridine-2-carboxamide], the “inhibition of leukemia growth (BLI)” value came to 94% in data set [1] (30 mg/kg twice daily by gavage) and 99.7% in data set [1] (medicated chow containing 15u at 1 g/kg). Moreover, the survival post treatment entry in data set [1] (oral gavage, FIG. 10D) is listed as “superior survival rates”. In addition, the IC50 (usually the concentration that gives 50% inhibition) in data set [2] worked out at 27.6 nM. In data set [3], the “response upon long-term treatment in vitro” value is “responsive”. In addition, in the data set on MYC-CAP-CR cells, the MYC-CAP-CR cell growth result is “little effect”. Further, the body weight loss entry in data set [4] (female CD-1 mice, 120 mg/kg b.i.d., after 7-10 days of treatment) is “about 10%”. The detrimental effects result in data set [4] (female CD-1 mice, doses up to 60 mg/kg b.i.d.) is recorded as “No detrimental effects”; in data set [4] (male CD-1 mice, 60 and 120 mg/kg b.i.d.), “No detrimental effects”.

The record behind these values is patent US11572369B2, “Bicyclic pyridine compositions and methods of using the same for cancer therapy” (UNIVERSITY OF SOUTH CAROLINA, priority 2019, dated 2023).
